Columns and labels:
human LDLs = assay: Modification of human LDLs by copper sulphate (lipid peroxidation, MDA production); format: biochemical; settings: copper sulphate 5×10^-6 M, 24 hours; read-out: IC50, inhibition of copper-induced modification (MDA production) of human LDLs
Procedure: Human LDLs are incubated for 24 hours in the presence of copper sulphate (5×10^-6 M) and in the absence or presence of the compounds tested (10^-7 M to 10^-4 M). After incubation, the peroxidation of the LDLs is evaluated by electrophoresis on agar gel and by the formation of one of the products of lipid peroxidation malonic dialdehyde (MDA), (Parthasarathy S., Young S. G., Witztum J. L., Pittman R. C. and Steinberg, D.; J. Clin. invest. 77; 641-644, 1986).
The activity of the tested compounds is evaluated by calculating those concentrations (IC50) that reduce the production of MDA by 50% compared with control experiments in the absence of the tested compound.

cardiac cells = assay: Oxidative necrosis of cardiac cells induced by hypoxanthine/xanthine-oxidase (XO + HX); format: cell-based, rat (newborn); settings: Rattus norvegicus, 4 h; for activity at 10 µM: 10^-5 M, read-out: necrosis index of cardiac cells, XO + HX, compound 10^-5 M; for activity at 10 µM / activity at 1 µM / activity at 0.1 µM: XO + HX, control XO + HX = 100.0; for activity at 1 µM: 10^-6 M, read-out: necrosis index of cardiac cells, XO + HX, compound 10^-6 M; for activity at 0.1 µM: 10^-7 M, read-out: necrosis index of cardiac cells, XO + HX, compound 10^-7 M; for minimal effective concentration: XO + HX induced oxidative necrosis, read-out: concentration at which compounds prove to be protective against necrosis
Procedure: The cardiac cells of newborn rats are used between the 5th and 6th days after placing in culture. Oxidative necrosis is induced by the free radical-producing enzymatic system hypoxanthine (HX, 1 -mm) and xanthineoxidase (XO, 10 mU/ml). The necrosis is evaluated 4 hours after the addition of XO/HX by measuring by spectrophotometry the cytosolic α-hydroxybutyrate dehydrogenase (a-HBDH) activity liberated in the supernatant. The cells are treated with the test compounds 16 hours and 1 hour before the beginning of the experiment after renewing the medium. At the beginning of the experiment, the treatment is carried out again one last time.
Table 3 lists the necrosis indices of cardiac cells induced by the hypoxanthine/xanthine-oxidase system alone or in the presence of increasing concentrations of the compounds of the invention.

isolated hearts of rats = assay: Hypoxia reoxygenation on the isolated heart of a rat; parameters: species or system Wistar rat; settings: for functional recovery of the hearts during reoxygenation / reduction of the developing contracture at the end of 30 minutes reoxygenation: Example 1 at 3×10^-7 M, 10 at 10^-7 M, 13 at 7×10^-7 M; for functional recovery of the hearts during reoxygenation: 40% in the control experiments; for reduction of the developing contracture at the end of 30 minutes reoxygenation: vs control; for Contracture, hypoxia 10 min / Contracture, hypoxia 30 min / Contracture, hypoxia 60 min / Contracture, reoxygenation 15 min / Contracture, reoxygenation 30 min: Example 1 at 3 × 10^-7 M, Example 10 at 10^-7 M, Example 13 at 7 × 10^-7 M; for Contracture, hypoxia 10 min: control 23.7 ± 6.8; for Contracture, hypoxia 30 min: control 33.7 ± 8.9; for Contracture, hypoxia 60 min: control 32.3 ± 7.4; for Contracture, reoxygenation 15 min: control 20.6 ± 7.8; for Contracture, reoxygenation 30 min: control 12.3 ± 6.1
Procedure: The hearts of male Wistar rats (325-375 g--Charles River breed) anaesthetized by the intraperitoneal route with sodium pentobarbital (30 mg/kg) are removed after the injection of heparin i.v. (1 ml/kg) and rapidly perfused by the Langendorff technique at a constant pressure of 76 mmhg and stimulated electrically at 5 Hz. The isovolumetric contractions are recorded by way of a small polyethylene balloon connected to a pressure sensor (P23-Gould) introduced into the left ventricle and inflated so as to obtain a diastolic pressure of approximately 10 mmhg. The physiological solution used, maintained at 37° C., has the following composition (mM): NaCl 118; KCl 4.7; KH2 PO4 1.2; MgCl2 1.2; CaCl2 1.3; NaHCO3 25; glucose 8, pH 7.4/95% O2 +5% CO2.
After a period of stabilization of from 15 to 30 minutes, the heart is subjected to hypoxia for 60 minutes (effected with 95% N2 and 5% CO2; PO2 <40 mmHg), followed by reoxygenation for 30 minutes; the compound is added to the incubation medium 15 minutes before and during the period of hypoxia.

rat aorta = assay: Study on isolated vessels: vascular relaxing effect on a rat aorta contracted by potassium (80 mM); parameters: species or system Wistar rat; settings: rat aorta rings without endothelium contracted by potassium (80 mM)
Procedure: The thoracic aorta of Wistar rats (325-375 g) that have been anaesthetized by the intraperitoneal route with sodium pentobarbital (30 mg/kg) is removed and dissected into rings 3 mm in length; the endothelium is removed by gentle abrasion using a piece of wood. Each ring is connected to a Statham pressure sensor (UC2-Gould). The initial pressure applied is 2.5 g. The physiological solution used, maintained at 37° C., has the following composition (mM): NaCl 112; KCl 5; KH2 PO4 1; MgSO4 1.2; CaCl2 2.5; NaHCO3 25; glucose 11.; EDTA 0.026. After a stabilization period of 90 minutes, the aorta rings are subjected to a hyperpotassic medium (80 MM KCl and 37 mM NaCl). When the contraction is stable, cumulative concentrations of compound are added to the medium every 15 minutes. The relaxation values obtained enable calculation of the IC50.

SMILES	IC50 (human LDLs) [nM]	activity at 10 µM (cardiac cells) [%]	activity at 1 µM (cardiac cells) [%]	activity at 0.1 µM (cardiac cells) [%]	functional recovery of the hearts during reoxygenation (isolated hearts of rats)	reduction of the developing contracture at the end of 30 minutes reoxygenation (isolated hearts of rats)	Contracture, hypoxia 10 min (isolated hearts of rats) [mm Hg]	Contracture, hypoxia 30 min (isolated hearts of rats) [mm Hg]	Contracture, hypoxia 60 min (isolated hearts of rats) [mm Hg]	Contracture, reoxygenation 15 min (isolated hearts of rats) [mm Hg]	Contracture, reoxygenation 30 min (isolated hearts of rats) [mm Hg]	IC50 (rat aorta) [nM]	minimal effective concentration (cardiac cells) [µM]
COc1ccc(CN2CCN(CCCSc3cc(C(C)(C)C)c(O)c(C(C)(C)C)c3)CC2)c(OC)c1OC [Example 7, 4-(2,3,4-trimethoxybenzyl)-I-[3-(4-hydroxy-3,5-di-tert.-butylphenylthio)propyl]piperazine]	600	27.9 ± 3.4	19.3 ± 0.9	85.9 ± 1.7	–	–	–	–	–	–	–	–	–
COc1ccc(CN2CCN(CCCc3cc(C(C)(C)C)c(O)c(C(C)(C)C)c3)CC2)c(OC)c1OC [Example 4, 4-(2,3,4-trimethoxybenzyl)-l-[3-(4-hydroxy-3,5-di-tert.-butylphenyl)propyl]piperazine]	2000	10.2 ± 3.1	22.3 ± 6.5	103 ± 12	–	–	–	–	–	–	–	–	–
COc1ccc(CN2CCN(CCCOc3cc(C)c(O)c(C)c3C)CC2)c(OC)c1OC [Example 1, 4-(2,3,4-trimethoxybenzyl)-1-[3-(4-hydroxy-2,3,5-trimethylphenoxy)propyl]piperazine]	90	13.9 ± 5.3	55.4 ± 6.4	70.4 ± 2.5	more than 70%	more than 70%	21.0 ± 5.8	22.5 ± 2.5	21.0 ± 3.9	12.5 ± 5.1	2.5 ± 2.5	5000	≥ 0.1
COc1ccc(CN2CCN(CC(O)COc3cc(C(C)(C)C)c(O)c(C(C)(C)C)c3)CC2)c(OC)c1OC (stereo not drawn) [Example 5, 4-(2,3,4-trimethoxybenzyl)-l-[3-(4-hydroxy-3,5-di-tert.-butylphenoxy)-2-hydroxypropyl]piperazine]	900	–	–	–	–	–	–	–	–	–	–	–	–
COc1ccc(CN2CCN(CCCCCOc3cc(C(C)(C)C)c(O)c(C(C)(C)C)c3)CC2)c(OC)c1OC [Example 8, 4-(2,3,4-trimethoxybenzyl)-l-[5-(4-hydroxy-3,5-di-tert.-butylphenoxy)pentyl]piperazine]	1000	27.2 ± 2	21.6 ± 4.2	91.4 ± 3.1	–	–	–	–	–	–	–	–	–
COc1ccc(CN2CCN(CCCOc3cc(C(C)(C)C)c(O)c(C(C)(C)C)c3)CC2)c(OC)c1OC [Example 3, 4-(2,3,4-trimethoxybenzyl)-l-[3-(4-hydroxy-3,5-di-tert.-butylphenoxy)propyl]piperazine]	500	37.6 ± 2.7	16.9 ± 1.1	72.6 ± 5.7	–	–	–	–	–	–	–	–	≥ 0.1
COc1ccc(CN2CCN(CCCCCSc3cc(C(C)(C)C)c(O)c(C(C)(C)C)c3)CC2)c(OC)c1OC [Example 9, 4-(2,3,4-trimethoxybenzyl)-l-[5-(4-hydroxy-3,5-di-tert.-butylphenylthio)pentyl]piperazine]	80	33.3 ± 6.6	15.2 ± 2	53 ± 5.5	–	–	–	–	–	–	–	–	≥ 0.1
COc1ccc(CN2CCN(CC(O)CSc3cc(C)c(O)c(C)c3C)CC2)c(OC)c1OC (stereo not drawn) [Example 13, 4-(2,3,4-trimethoxybenzyl)-l-[3-(4-hydroxy-2,3,5-trimethylphenylthio)-2-hydroxypropyl)piperazine]	70	15.1 ± 0.6	64.7 ± 0.4	100 ± 4.8	more than 70%	more than 70%	11.0 ± 4.4	15.0 ± 6.1	13.5 ± 6.3	6.0 ± 6.0	3.5 ± 3.5	4300	–
COc1ccc(CN2CCN(CC(C)(C)CSc3cc(C(C)(C)C)c(O)c(C(C)(C)C)c3)CC2)c(OC)c1OC [Example 12, 4-(2,3,4-trimethoxybenzyl)-l-[3-(4-hydroxy-3,5-di-tert.-butylphenylthio)-2,2-dimethylpropyl]piperazine]	800	–	–	–	–	–	–	–	–	–	–	–	–
COc1ccc(CN2CCN(CC(O)CSc3cc(C(C)(C)C)c(O)c(C(C)(C)C)c3)CC2)c(OC)c1OC (centres unmarked) [Example 6, 4-(2,3,4-trimethoxybenzyl)-I-[3-(4-hydroxy-3,5-di-tert.-butylphenylthio)-2-hydroxypropyl]piperazine]	300	8.3 ± 1.4	7.7 ± 0.1	99.5 ± 7.5	–	–	–	–	–	–	–	2700	–
COc1ccc(CN2CCN(CCC(C)(C)Sc3cc(C(C)(C)C)c(O)c(C(C)(C)C)c3)CC2)c(OC)c1OC [Example 2, 4-(2,3,4-trimethoxybenzyl)-1-[3-(4-hydroxy-3,5-di-tert.-butylphenylthio)-3,3-dimethylpropyl]piperazine]	3000	–	–	–	–	–	–	–	–	–	–	–	–
COc1ccc(CN2CCN(CC(O)COc3cc(C)c(O)c(C)c3C)CC2)c(OC)c1OC (stereo not drawn) [Example 11, 4-(2,3,4-trimethoxybenzyl)-l-[3-(4-hydroxy-2,3,5-trimethylphenoxy)-2-hydroxypropyl]piperazine]	600	18 ± 2.9	70.9 ± 8.3	114 ± 5.2	–	–	–	–	–	–	–	–	–

— patent publication US5283246A, “Trimetazidine compounds” (Adir et Compagnie, priority 1991, dated 1994)
